From patent US10138230B2, “Autotaxin inhibitors” (CANCER RESEARCH TECHNOLOGY LIMITED, priority 2015, dated 2018)
Counter-ions that a name gives are not always drawn.

Target: human recombinant ATX (Homo sapiens (Human), UniProt Q13822)
Assay: Autotaxin (ATX) activity Quanta Red assay
Format: biochemical
Details: 15 μM Rac-1-Palmitoyl-glycero-3-phosphocholine, 2 hours room temperature, determined in duplicate
In short: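 Choline released from 15 μM LPC substrate by 0.8 μg/mL recombinant human ATX (pH 8.0 Tris, CaCl2, 4% DMSO, 2 h, RT) was detected by coupled Quanta Red fluorescence.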

IC50 [nM]	Structure (SMILES)
29	CN(C)Cc1ccc(N2CC(C(=O)Nc3nnc(CCc4ccc(Cl)cc4)s3)CC2=O)cc1 (stereo not shown) [Compound F177, N-[5-[2-(4-chlorophenyl)ethyl]-1,3,4-thiadiazol-2-yl]-1-[4-[(dimethylamino)methyl]phenyl]-5-oxo-pyrrolidine-3-carboxamide]
2	CN(Cc1ccc(N2C[C@@H](C(=O)Nc3cc(CCc4ccc(Cl)cc4)on3)CC2=O)cc1)C1CCOC1 (stereo partly drawn) [Compound F152, (3S)-N-[5-[2-(4-chlorophenyl)ethyl]isoxazol-3-yl]-1-[4-[[methyl(tetrahydrofuran-3-yl)amino]methyl]phenyl]-5-oxo-pyrrolidine-3-carboxamide]
3	O=C(NC1CC(=O)N(c2ccc(CN3CCCCCC3)cc2)C1)c1nnc(CCc2ccc(Cl)cc2)s1 (stereo not shown) [Compound F134, N-[1-[4-(azepan-1-ylmethyl)phenyl]-5-oxo-pyrrolidin-3-yl]-5-[2-(4-chlorophenyl)ethyl]-1,3,4-thiadiazole-2-carboxamide]
24	O=C(N[C@@H]1CC(=O)N(c2ccc(CN3CCCCC3)cc2)C1)c1cc(CCc2ccc(F)cc2)on1 [Compound F173, 5-[2-(4-fluorophenyl)ethyl]-N-[(3R)-5-oxo-1-[4-(1-piperidylmethyl)phenyl]pyrrolidin-3-yl]isoxazole-3-carboxamide]
58	CC(C)(O)CCNCc1ccc(N2C[C@H](NC(=O)c3nnc(CCc4ccc(Cl)cc4)s3)CC2=O)cc1 [Compound F170, 5-[2-(4-chlorophenyl)ethyl]-N-[(3R)-1-[4-[[(3-hydroxy-3-methyl-butyl)amino]methyl]phenyl]-5-oxo-pyrrolidin-3-yl]-1,3,4-thiadiazole-2-carboxamide hydrochloride]
2	O=C(NC1CC(=O)N(c2ccc(CN3CCCOCC3)cc2)C1)c1nnc(CCc2ccc(Cl)cc2)s1 (stereo not shown) [Compound F129, 5-[2-(4-chlorophenyl)ethyl]-N-[1-[4-(1,4-oxazepan-4-ylmethyl)phenyl]-5-oxo-pyrrolidin-3-yl]-1,3,4-thiadiazole-2-carboxamide]
4	O=C(Nc1ncc(CCc2ccccc2)s1)C1CC(=O)N(c2ccc(CN3CCOCC3)cc2)C1 (stereo not shown) [Compound F118, 1-[4-(morpholinomethyl)phenyl]-5-oxo-N-[5-(2-phenylethyl)thiazol-2-yl]pyrrolidine-3-carboxamide]
33	O=C(N[C@H]1CC(=O)N(c2ccc(CN3CCCCC3)cc2)C1)c1cc(CCc2ccc(F)cc2)on1 [Compound F174, 5-[2-(4-fluorophenyl)ethyl]-N-[(3S)-5-oxo-1-[4-(1-piperidylmethyl)phenyl]pyrrolidin-3-yl]isoxazole-3-carboxamide]
16	O=C(Nc1nnc(CCC2CCCC2)s1)C1CC(=O)N(c2ccc(CN3CCCCC3)cc2)C1 (stereo not shown) [Compound F166, N-[5-(2-cyclopentylethyl)-1,3,4-thiadiazol-2-yl]-5-oxo-1-[4-(1-piperidylmethyl)phenyl] pyrrolidine-3-carboxamide]
8	COc1ccc(CCc2nnc(NC(=O)C3CC(=O)N(c4ccc(CN5CCOCC5)cc4)C3)s2)cc1 (stereo not shown) [Compound F150, N-[5-[2-(4-methoxyphenyl)ethyl]-1,3,4-thiadiazol-2-yl]-1-[4-(morpholinomethyl)phenyl]-5-oxo-pyrrolidine-3-carboxamide]
14	O=C(Nc1nnc(CCc2ccc(Cl)cc2)s1)C1CC(=O)N(c2ccc(CN3CCCNCC3)cc2)C1 (stereo not shown) [Compound F156, 1-(4-[1,4]Diazepan-1-ylmethyl-phenyl)-5-oxo-pyrrolidine-3-carboxylic acid {5-[2-(4-chloro-phenyl)-ethyl]-[1,3,4]thiadiazol-2-yl}-amide; dihydrochloride]
385	NCc1ccc(N2CC(C(=O)Nc3nnc(CCc4ccc(Cl)cc4)s3)CC2=O)cc1 (stereo not shown) [Compound F203, 1-(4-aminomethyl-phenyl)-5-oxo-pyrrolidine-3-carboxylic acid {5-[2-(4-chloro-phenyl)-ethyl]-[1,3,4]thiadiazol-2-yl}-amide]
3	O=C(Nc1nnc(CCc2ccc(Cl)cc2)s1)[C@H]1CC(=O)N(c2ccc(CN3CCCOCC3)cc2)C1 [Compound F104, (3S)-N-[5-[2-(4-chlorophenyl)ethyl]-1,3,4-thiadiazol-2-yl]-1-[4-(1,4-oxazepan-4-ylmethyl)phenyl]-5-oxo-pyrrolidine-3-carboxamide]
2	O=C(N[C@@H]1CC(=O)N(c2ccc(CN3CCOCC3)cc2)C1)c1nnc(CCc2ccc(Cl)cc2)s1 [Compound F130, 5-[2-(4-chlorophenyl)ethyl]-N-[(3R)-1-[4-(morpholinomethyl)phenyl]-5-oxo-pyrrolidine-3-yl]-1,3,4-thiadiazole-2-carboxamide]
17	O=C(Nc1cc(CCc2ccccc2)on1)C1CC(=O)N(c2ccc(CN3CCOCC3)cc2)C1 (stereo not shown) [Compound F158, 1-[4-(morpholinomethyl)phenyl]-5-oxo-N-[5-(2-phenylethyl)isoxazol-3-yl]pyrrolidine-3-carboxamide]
2	O=C(NC1CC(=O)N(c2ccc(CN3CCCCC3)cc2)C1)c1cc(CCc2ccc(Cl)cc2)on1 (stereo not shown) [Compound F144, 5-[2-(4-chlorophenyl)ethyl]-N-[5-oxo-1-[4-(1-piperidylmethyl)phenyl]pyrrolidin-3-yl]isoxazole-3-carboxamide]
17	O=C(NC1CC(=O)N(c2ccc(CN3CCCCC3)cc2)C1)c1nnc(CCc2ccc(F)cc2)s1 (stereo not shown) [Compound F168, 5-[2-(4-fluorophenyl)ethyl]-N-[5-oxo-1-[4-(1-piperidylmethyl)phenyl]pyrrolidin-3-yl]-1,3,4-thiadiazole-2-carboxamide]
76	O=C(NC1CC(=O)N(c2ccc(CN3CCCCC3)cc2)C1)c1nnc(CCc2ccccc2)s1 (stereo not shown) [Compound F172, N-[5-oxo-1-[4-(1-piperidylmethyl)phenyl]pyrrolidin-3-yl]-5-(2-phenylethyl)-1,3,4-thiadiazole-2-carboxamide]
3	O=C(Nc1nnc(CCC2CCCC2)s1)C1CC(=O)N(c2ccc(CN3CCC(F)CC3)cc2)C1 (stereo not shown) [Compound F113, N-[5-(2-cyclopentylethyl)-1,3,4-thiadiazol-2-yl]-1-[4-[(4-fluoro-1-piperidyl)methyl]phenyl]-5-oxo-pyrrolidine-3-carboxamide]
3	CCN(Cc1ccc(N2CC(C(=O)Nc3nnc(CCc4ccc(Cl)cc4)s3)CC2=O)cc1)CC(C)C (stereo not shown) [Compound F112, N-[5-[2-(4-chlorophenyl)ethyl]-1,3,4-thiadiazol-2-yl]-1-[4-[[ethyl(isobutyl)amino]methyl]phenyl]-5-oxo-pyrrolidine-3-carboxamide]
2	COCCN(C)Cc1ccc(N2CC(C(=O)Nc3nnc(CCc4ccc(Cl)cc4)s3)CC2=O)cc1 (stereo not shown) [Compound F100, N-[5-[2-(4-chlorophenyl)ethyl]-1,3,4-thiadiazol-2-yl]-1-[4-[[2-methoxyethyl(methyl)amino]methyl]phenyl]-5-oxo-pyrrolidine-3-carboxamide]
487	O=C(Nc1nnc(CCC2CCOCC2)s1)C1CC(=O)N(c2ccc(CN3CCCCC3)cc2)C1 (stereo not shown) [Compound F189, 5-oxo-1-[4-(1-piperidylmethyl)phenyl]-N-[5-(2-tetrahydropyran-4-ylethyl)-1,3,4-thiadiazol-2-yl]pyrrolidine-3-carboxamide]
